Results on two molecules are retold here after patent US12440479B2, “Prevention or treatment of chronic organ injury” (GEORG-AUGUST-UNIVERSITAET GOETTINGEN, STIFTUNG …, priority 2018, dated 2025).

The structures appear in SMILES notation.

Test [1] deals with intrarenal ARNT/ALK3 signaling. The test can be described thus: UUO kidneys: ARNT/ALK3 expression and pSmad1/5/8 (qRT-PCR, immunoblotting, immunostaining). It counts as in vivo, mice. The note with it: for canonical BMP signaling responses / intrarenal ARNT and ALK3 transcription: FK506 0.2 mg/kg or GPI-1046 30 mg/kg orally per day starting three days after UUO; for intrarenal NFAT signaling: picomolar FK506 or GPI-1046. The protocol:
Eight to twelve weeks-old C57/6, yGTcre−;Yy1fl/fl and yGTcre+;Yy1fl/fl mice were anesthetized with isoflurane inhalation (2-3%), analgesia was performed by subcutaneous injection of 0.1 mg/kg body weight per day Buprenorphine. The ureter was separated from the surrounding tissues and two ligatures were placed about 5 mm apart in upper two-thirds of the left ureter to obtain reliable obstruction. Mice were sacrificed 3, 7 or 10 days after ureteral obstruction for further analyses, as described before (53, 153-155).
Paraffin-embedded specimens were deparaffinized in xylene and rehydrated in ethanol containing distilled water. Tissue sections were stained using polyclonal antibodies against ALK3 (sc-20736, Santa Cruz Biotechnology, Dallas, USA) and ARNT (3718S, Cell Signaling, Danvers, USA), peroxidase labeling was performed using Vectastain Universal Elite ABC Kit (Vector Laboratories, Burlingame, USA) according to the manufacturer's protocol. AEC Substrate-Chromogen (Dako, Glostrup, Denmark) was applied for peroxidase visualization according to the manufacturer's protocol. Nuclear counterstain was performed by using Mayer's Hematoxylin Solution (Sigma, St. Louis, USA).
For immunofluorescent staining, primary antibodies against ARNT (5537S, Cell Signaling, Danvers, USA), Hif1α (H6535, Sigma, St. Louis, USA), Hif2α (ab20654, Abcam Biochemicals, Cambridge, UK), phosphorylated Smad1/5/8 (pSmad1/5/8, sc-12353, Santa Cruz Biotechnology, Dallas, USA), CD45 (550539, BD Biosciences, Franklin Lakes, USA), Collagen-1 (ab34710, Abcam Biochemicals, Cambridge, UK), α-smooth muscle actin (aSMA, A5228, Sigma, St. Louis, USA), FKBP12 (ab2918, Abcam Biochemicals, Cambridge, UK) and YY1 (ab12132, Abcam Biochemicals, Cambridge, UK) were used, secondary antibodies were labeled with Alexa Fluor 488 or 568 (Life Technologies, Carlsbad, USA). Renal basement membranes were stained with antibodies against Collagen-4 (1340-30, SouthernBiotech, Birmingham, USA), cardiac cell membranes with antibodies against WGA (W11261, Life Technologies, Carlsbad, USA). Nuclear staining was performed using 4′,6-diamidino-2-phenylindole (DAPI, Vector Laboratories, Burlingame, USA). Relative areas positive for Collagen-1, aSMA, tubular nuclei positive for ARNT and pSmad1/5/8 were quantified in 10 high power fields per section at 400× magnification.
For SYBR-based real-time PCR, cDNA synthesis was performed by using DNase I digestion (Invitrogen, Carlsbad, USA) and SuperScript II Reverse Transcriptase (Invitrogen, Carlsbad, USA) according to the manufacturer's protocol. 1 μL of reverse-transcribed cDNA was added to the reaction mixture containing the primer pair (200 nmol/L each) and diluted 2× Fast SYBR Green Master Mix (Applied Biosystems, Carlsbad, USA) in a final volume of 20 μL for each PCR reaction. The real-time PCR reactions were performed in a 96-well reaction plate using the StepOne Plus Real-Time System (Applied Biosystems, Carlsbad, USA) and were done in triplicates. An initiation step at 95° C. for 20 seconds was followed by 40 cycles at 95° C. for 3 to seconds and 60° C. for 30 seconds, with one cycle of dissociation at 95° C. for 15 seconds, 60° C. for 60 seconds, and 95° C. for 15 seconds. The intercalation of SYBR Green dye and its fluorescent signal is directly proportional to the amount of amplified DNA and was transformed into the cycle threshold (Ct). For normalization, the Ct values of the housekeeping genes Gapdh and Actb were subtracted from the Ct values of the gene of interest to generate the dCt values. The relative expression levels were calculated using the equation 2^−ddCt.
Tissue and cells were homogenized in NP40 lysis buffer (Life technologies, Carlsbad, USA) supplemented with protease inhibitor cocktail (Roche, Basel, Switzerland).
(In general: Real-time PCR tracks product formation cycle by cycle.)

Test [2] deals with functional parenchyma. The test can be described thus: Streptozotocin (STZ) model of diabetic nephropathy. Format: in vivo. The note with it: STZ mice; FK506 0.2 mg/kg or GPI-1046 10 mg/kg subcutaneously per day. The protocol:
Based on these observations, we next hypothesized that FK506 and small molecule FKBP12 inhibitor GPI-1046 could equally protect functional parenchyma in an experimental models of diabetic nephropathy (168). Diabetes was induced in 8 to 12 weeks old C57BL/6N mice by a single intraperitoneal injection of streptozotocin (STZ) at 200 mg/kg in 10 mmol/L citrate buffer (pH 4.5), citrate buffer alone was injected as control (168). FK506 (0.2 mg/kg body weight) and GPI-146 (10 mg/kg body weight) in DMSO once daily were applied by subcutaneous injections starting one day prior of STZ administration. At day 3 after STZ injection, diabetes was confirmed by urine dipstick. Mice were sacrificed 8 weeks after STZ injection for further analyses.

The subject of test [3] is UUO-challenged kidneys. Description: Unilateral ureteral obstruction (UUO): tubular injury and interstitial fibrosis (histology, immunostaining). Format: in vivo, mice.
Test [4] concerns ARNT. The test can be described thus: ARNT mRNA expression levels in organs of treated mice (qRT-PCR). It counts as in vivo. The note with it: FK506 0.2 mg/kg or GPI-1046 30 mg/kg orally per day; kidney, heart, brain, spinal cord, skin, liver, lung and intestine. Here is the method:
Solutions were changed once a day and mice were sacrificed at indicated time points.
Mice were injected subcutaneously with 10 mg/kg body weight per day GPI-1046 (Santa Cruz Biotechnology, Dallas, USA) in DMSO once daily starting one day prior of surgery, control mice received equivalent volume of vehicle DMSO. For oral administration, GPI-1046 stock solution was diluted in glucose-water (5%) and orally applied on the basis of an average drinking volume of 3 mL and a body weight of 20 g per mouse. Three days after challenging with UUO, mice were treated orally with either vehicle buffer glucose (5%) or 30 mg/kg body weight per day GPI-1046, respectively.
For SYBR-based real-time PCR, cDNA synthesis was performed by using DNase I digestion (Invitrogen, Carlsbad, USA) and SuperScript II Reverse Transcriptase (Invitrogen, Carlsbad, USA) according to the manufacturer's protocol. 1 μL of reverse-transcribed cDNA was added to the reaction mixture containing the primer pair (200 nmol/L each) and diluted 2× Fast SYBR Green Master Mix (Applied Biosystems, Carlsbad, USA) in a final volume of 20 μL for each PCR reaction. The real-time PCR reactions were performed in a 96-well reaction plate using the StepOne Plus Real-Time System (Applied Biosystems, Carlsbad, USA) and were done in triplicates. […] The relative expression levels were calculated using the equation 2^−ddCt.

Where [5] appears, read: UUO, VMO 12.5 mg/kg intraperitoneally or FK506 0.2 mg/kg orally per day.
[6] abbreviates: UUO, intrarenal ARNT induction depleted (Arnt-VMO).
The mark [7] stands for this setting: UUO, FK506 0.2 mg/kg or GPI-1046 30 mg/kg orally per day starting three days after UUO.
The mark [8] stands for this setting: UUO, FK506 0.02-5.0 mg/kg or CsA 10 mg/kg orally per day starting one day prior to UUO.

With `C=CC[C@@H]1/C=C(\C)C[C@H](C)C[C@H](OC)[C@H]2O[C@@](O)(C(=O)C(=O)N3CCCC[C@H]3C(=O)O[C@H](/C(C)=C/[C@@H]3CC[C@@H](O)[C@H](OC)C3)[C@H](C)[C@@H](O)CC1=O)[C@H](C)C[C@@H]2OC` [FK506, tacrolimus], the “renal ARNT expression” value in test [1] (UUO mice, low-dose FK506 or CsA) is given as “significantly increased”. Besides, the “nuclear pSmad1/5/8” value in test [1] (UUO-challenged murine kidneys) was “nuclear pSmad1/5/8 accumulation”. In addition, in test [1] (UUO-challenged murine kidneys, treatment starting one day prior), the “expression of ALK3” value is reported as “specifically induced”. For the same molecule, in test [1] (UUO), the “canonical BMP signaling responses” value is “enhanced”; the “intrarenal ARNT and ALK3 transcription” value is listed as “equally effective”; the “intrarenal NFAT signaling” value is “not affecting”. Moreover, in test [1] (setting [5]), the “intrarenal ARNT, ALK3 and nuclear pSmad1/5/8 immunostaining” value was “equally induced”. In addition, the “intrarenal ALK3-dependent BMP signaling responses” value in test [1] (setting [6]) is on record as “failed to induce”. Also, the “protection of functional parenchyma from chronic injury” value in test [2] is recorded as “equally effective”. Also, in test [3] (UUO mice that had also received Fkbp12-VMO or Yy1-VMO), the “effect of FK506 on ALK3 expression, nuclear pSmad1/5/8, tubular injury or interstitial fibrosis” value is recorded as “no additive effects”. Further, the “effect of FK506 on BMP signaling, tubular injury, renal fibrogenesis, ALK3 transcription” value in test [3] (UUO, mice with YY1 depleted in TECs (yGTcre+;Yy1fl/fl), FK506 0.2 mg/kg orally per day) is reported as “no additive effects”. The “tubular injury and renal fibrogenesis” value in test [3] (setting [7]) is given as “attenuated”. In test [3] (setting [8]), the chronic tubular injury result is given as “reduced” and the interstitial fibrosis entry was “reduced”. Besides, the “tubular injury and tubulointerstitial fibrosis” value in test [3] (setting [5]) was “attenuated”. For the same molecule, the “protection of kidneys from tubular injury and progressive fibrotic disease” value in test [3] (setting [6]) was “failure of FK506 to protect”. In addition, the “transcriptional ARNT induction in organs” value in test [4] is “transcriptional ARNT induction was present”.
On to `CCC(C)(C)C(=O)C(=O)N1CCC[C@H]1C(=O)OCCCc1cccnc1` [GPI-1046, 3-(3-pyridyl)-1-propyl-(2S)-1-(3,3-dimethyl-1,2-dioxopentyl)-2-pyrrolidinedine carboxylate], for which the “intrarenal ARNT and ALK3 transcription, BMP signaling responses” value in test [1] (UUO, 10 mg/kg subcutaneously per day starting one day prior, compared to FK506) is listed as “equally induced”. In addition, in test [1] (UUO), the “canonical BMP signaling responses” value is “enhanced”; the “intrarenal ARNT and ALK3 transcription” value was “equally effective”; the “intrarenal NFAT signaling” value is listed as “not affecting”. Besides, the “protection of functional parenchyma from chronic injury” value in test [2] was “equally effective”. Besides, in test [3] (UUO, 10 mg/kg subcutaneously per day starting one day prior), the “tubular injury and renal fibrogenesis” value is on record as “protected”. Further, the “tubular injury and renal fibrogenesis” value in test [3] (setting [7]) was “attenuated”. The “transcriptional ARNT induction in organs” value in test [4] was “transcriptional ARNT induction was present”.
